The test system of experiment [1] is mitochondrial protein synthesis. Description: Mitochondrial protein synthesis (35S-methionine incorporation), HUVEC. The experiment is classed as cell-based, human. The procedure:
(§1) Human umbilical endothelial vein cells (HUVEC) and human aortic smooth muscle cells (HASMC) were maintained a t 37° C. and 5% CO2/95% air in Dulbecco's Modified Eagles Media (HASMC; Cell Gro) or M199 (HUVEC:Cell Gro) supplemented with 10% (HASMC) or 20% (HUVEC) heat inactivated fetal calf serum (Gibco/BRL), HEPES buffer (10 mM), glutamine, penicillin, and streptomycin. Flasks were routinely split every 3-4 days and disassociated for experiments using trypsin-EDTA (Gibco/BRL). Cells were treated with the various reactive oxygen species (controls mock treated with serum-free media) at 70-80% confluence, between passages 5-7. […] SIN-1 (3-morpholinosydnonimine, hydrochloride, Molecular Probes) was used to generate higher, equimolar levels of nitric oxide and O2^−. Monolayer cultures in 60 mm plates (70%-80% confluent) were exposed to specific reactive oxygen species concentrations for dose response, and time-course experiments in serum-free, phenol red free minimum essential media (MEM) at 37° C. Control monolayers were mock-treated with serum-free and phenol red-free MEM alone. After treatment, cells were washed once with PBS and harvested immediately. Methods for mitochondrial protein synthesis analyses have been described (37). […] Cells were trypsinized, and washed with PBS. […] Gels were dried onto Whatman filter paper, and exposed to Kodak XAR film at −80° C. The percent labeling of the translation products was determined by densitometry (Molecular Dynamics Densitometer SI) of all bands for untreated and treated samples. The sum of labeling of the bands for each sample was used to calculate the relative levels of incorporation. In regard to the quantitation of mitochondrial protein levels, any technique used to quantify mitochondrial protein synthesis levels would be applicable. Statistical analysis was performed using the independent Student's t test.

The test system is the same in experiment [2]. Briefly: Mitochondrial protein synthesis (35S-methionine incorporation), HASMC. The experiment is classed as cell-based, human. As to the method: as §1
In experiment [3] the test system is mitochondrial DNA. Description: QPCR DNA damage assay, mtDNA, HUVEC. The experiment is classed as cell-based, human. As to the method:
(§2) Human umbilical endothelial vein cells (HUVEC) and human aortic smooth muscle cells (HASMC) were maintained a t 37° C. and 5% CO2/95% air in Dulbecco's Modified Eagles Media (HASMC; Cell Gro) or M199 (HUVEC:Cell Gro) supplemented with 10% (HASMC) or 20% (HUVEC) heat inactivated fetal calf serum (Gibco/BRL), HEPES buffer (10 mM), glutamine, penicillin, and streptomycin. Flasks were routinely split every 3-4 days and disassociated for experiments using trypsin-EDTA (Gibco/BRL). Cells were treated with the various reactive oxygen species (controls mock treated with serum-free media) at 70-80% confluence, between passages 5-7.
Xanthine oxidase/lumazine and spermine NONOate were used as low dose O2^− and nitric oxide donors, respectively. SIN-1 (3-morpholinosydnonimine, hydrochloride, Molecular Probes) was used to generate higher, equimolar levels of nitric oxide and O2^−. Monolayer cultures in 60 mm plates (70%-80% confluent) were exposed to specific reactive oxygen species concentrations for dose response, and time-course experiments in serum-free, phenol red free minimum essential media (MEM) at 37° C. Control monolayers were mock-treated with serum-free and phenol red-free MEM alone. After treatment, cells were washed once with PBS and harvested immediately.
(§3) The QPCR assay measures the average degree of DNA damage per strand for the two template strands in the genomic segment of interest. […] Damage is assessed in the mitochondrial genome by amplifying a 16.2 kb product from the mitochondrial DNA template, and the nuclear genome by a 17.7 kb product from the β-globin gene cluster. […] Because differences in QPCR amplifications may at times be related to template copy number differences or simply due to the DNA quality unrelated to in vivo or in vitro mediated damage, a quantitative amplification of a small region is performed as a quality control (32). […]

The test system of experiment [4] is mitochondrial DNA. Briefly: QPCR DNA damage assay, mtDNA, HASMC. The class given is cell-based, human. The settings on record: 0.2 mM, time course 0-60 minutes. The procedure:
as §2
(§4) Xanthine oxidase/lumazine and spermine NONOate were used as low dose O2^− and nitric oxide donors, respectively. […]
as §3

Experiment [5] deals with nDNA (β-globin gene cluster). Description: QPCR DNA damage assay, nDNA, HUVEC. The class given is cell-based, human. The following applies: 0.2 mM, time course 0-60 minutes. The procedure: as §2, §4, §3
Experiment [6] concerns complex II, succinate dehydrogenase. Briefly: MTT reduction (mitochondrial respiration), HASMC. The experiment is classed as cell-based, human. The settings on record: 1 hour. As to the method: (§5) Reduction of MTT at complex II was used to assess mitochondrial respiration (38-42). Cells were seeded in 96 well plates at a density of 8,000 cells/well and incubated at 37° C. […] Absorbance values were converted to MTT reduction using a standard curve generated with known numbers of viable cells. MTT reduction for treated samples was then normalized to non-treated control samples and is reported as a fraction of control. Total ATP levels were determined using an ATP determination kit (Molecular Probes, A-6608) and a MicroLumat Plus LB (EG&G Berthold) micro-injector luminometer. Briefly, this assay is based upon luciferin-luciferase bioluminescence (˜560 nm) in the presence of ATP. This assay is extremely sensitive; most luminometers can detect as little as 0.1 picomole of pre-existing ATP, or ATP as it is being formed in kinetic systems. Statistical analysis was performed using the independent Student's t test.

A further experiment relates to HASMC. Description: Total ATP determination, HASMC. The class given is cell-based, human. The following applies: 1 hour. The procedure: as §5
For experiment [7], the system named is mitochondrial protein synthesis. Briefly: Mitochondrial protein synthesis, HUVEC and HASMC pooled statements. The class given is cell-based. The following applies: Homo sapiens; 0.1 mM, cell line not stated. As to the method: Human umbilical endothelial vein cells (HUVEC) and human aortic smooth muscle cells (HASMC) were maintained a t 37° C. and 5% CO2/95% air in Dulbecco's Modified Eagles Media (HASMC; Cell Gro) or M199 (HUVEC:Cell Gro) supplemented with 10% (HASMC) or 20% (HUVEC) heat inactivated fetal calf serum (Gibco/BRL), HEPES buffer (10 mM), glutamine, penicillin, and streptomycin. Flasks were routinely split every 3-4 days and disassociated for experiments using trypsin-EDTA (Gibco/BRL). Cells were treated with the various reactive oxygen species (controls mock treated with serum-free media) at 70-80% confluence, between passages 5-7. […] SIN-1 (3-morpholinosydnonimine, hydrochloride, Molecular Probes) was used to generate higher, equimolar levels of nitric oxide and O2^−. Monolayer cultures in 60 mm plates (70%-80% confluent) were exposed to specific reactive oxygen species concentrations for dose response, and time-course experiments in serum-free, phenol red free minimum essential media (MEM) at 37° C. […] The percent labeling of the translation products was determined by densitometry (Molecular Dynamics Densitometer SI) of all bands for untreated and treated samples. […] In regard to the quantitation of mitochondrial protein levels, any technique used to quantify mitochondrial protein synthesis levels would be applicable. […]

The target in another experiment is T1, recombinant human MnSOD (Homo sapiens, UniProt P04179).
T1 sequence (P04179 25-222): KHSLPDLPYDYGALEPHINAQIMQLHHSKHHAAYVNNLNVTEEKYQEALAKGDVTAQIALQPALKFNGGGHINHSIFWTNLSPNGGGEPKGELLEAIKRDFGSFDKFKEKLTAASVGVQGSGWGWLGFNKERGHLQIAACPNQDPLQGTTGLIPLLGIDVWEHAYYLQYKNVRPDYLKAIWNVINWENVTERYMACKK
The settings on record: cited from earlier work.

Experiment [8] has as its system 16S rRNA, ND2 and Cyt b transcripts. Briefly: Northern transcript analysis, HUVEC. The class given is cell-based, human. The settings on record: 0.5 mM, 60 min. The procedure:
(§6) Human umbilical endothelial vein cells (HUVEC) and human aortic smooth muscle cells (HASMC) were maintained a t 37° C. and 5% CO2/95% air in Dulbecco's Modified Eagles Media (HASMC; Cell Gro) or M199 (HUVEC:Cell Gro) supplemented with 10% (HASMC) or 20% (HUVEC) heat inactivated fetal calf serum (Gibco/BRL), HEPES buffer (10 mM), glutamine, penicillin, and streptomycin. Flasks were routinely split every 3-4 days and disassociated for experiments using trypsin-EDTA (Gibco/BRL). Cells were treated with the various reactive oxygen species (controls mock treated with serum-free media) at 70-80% confluence, between passages 5-7. […] SIN-1 (3-morpholinosydnonimine, hydrochloride, Molecular Probes) was used to generate higher, equimolar levels of nitric oxide and O2^-. Monolayer cultures in 60 mm plates (70%-80% confluent) were exposed to specific reactive oxygen species concentrations for dose response, and time-course experiments in serum-free, phenol red free minimum essential media (MEM) at 37° C. Control monolayers were mock-treated with serum-free and phenol red-free MEM alone. […] Autoradiographs were scanned densitometrically (Molecular Dynamics Densitometer SI) and quantitated using IMAGEQUANT (Molecular Dynamics). In regard to the quantitation of mitochondrial transcript levels, any technique used to quantify mtRNA transcript levels would be applicable. […]

Experiment [9] relates to mitochondrial DNA encoded OXPHOS gene transcripts; β-actin. Briefly: Northern transcript analysis, HUVEC and HASMC pooled statements. The class given is cell-based, human. The following applies: peroxynitrite treatments. The procedure: as §6
Experiment [10] relates to complex II, succinate dehydrogenase. Briefly: MTT reduction (mitochondrial respiration), HUVEC. The experiment is classed as cell-based, human. The settings on record: 1 hour. The procedure:
as §5
In general terms: Tetrazolium dyes change colour on reduction, which living cells bring about.

Another experiment deals with HUVEC. Briefly: Total ATP determination, HUVEC. The class given is cell-based, human. The following applies: 1 hour. As to the method: as §5
Experiment [11] has as its system 16S rRNA, ND2 and Cyt b transcripts. Briefly: Northern transcript analysis, HASMC. The following applies: 0.5 mM, 60 min. The class given is cell-based, human. As to the method: as §6
The mark [12] stands for this setting: Homo sapiens, 0.5 mM, read-out: protein labeling, % of control.

Bounds are passed on as bounds.

`OO` [H2O2, hydrogen peroxide]: the results for the “35S-Methionine Incorporation Compared to Control” value in experiment [1] (0.2 mM) and in [2] (0.2 mM) were 77% and 67%, respectively. Moreover, the “time at which significant mitochondrial DNA damage occurred” value in the experiment on mitochondrial DNA [3] (HUVEC, 0.2 mM, time course 0-60 minutes) is recorded as no more than 10 min; in the experiment with mitochondrial DNA [4], no more than 15 min. Besides, the “treatment time required before significant nDNA (β-globin) damage” value in experiment [5] is 60 min.

For orientation: inhibition means how much of the control response was suppressed. For `O=NOO` [peroxynitrite], the “35S-Methionine Incorporation Compared to Control” value came out at 45% in [1], 30% in [2] and 88% in [2] (0.1 mM). Besides, the “loss of mitochondrial protein synthesis compared to untreated cells” value in experiment [1] (0.5 mM) came to 55%. In addition, the activity at 500 µM in experiment [1] (setting [12]) came to 45%; in experiment [2] (setting [12]), 30%. Besides, the “complex II reduction of MTT (mitochondrial respiration), in words” value in experiment [6] (0.1 mM) is reported as “did not result in a significant decrease”; in experiment [6] (0.5 mM, P=0.008) it was “significant decline”; in experiment [10] (0.1 mM), “did not result in a significant decrease”; in [10] (0.5 mM, P=0.02), “significant decline”. The “total ATP (in words)” value in the experiment on HASMC (0.1 mM) was “did not result in a significant reduction”; in the experiment with HASMC (0.5 mM, P=0.04) it was “significant decreases”; with HUVEC (0.1 mM), “did not result in a significant reduction”; in the experiment with HUVEC (0.5 mM, P=0.02), “significant decreases”. Besides, 100 µM produced 10% inhibition in experiment [7]. Moreover, the “decrease in 35S-methionine incorporation” value in [2] (0.1 mM) is 12%. For the same compound, the “inhibition of MnSOD enzymatic activity” value at recombinant human MnSOD was “complete inhibition”. Also, the “decrease of 16S rRNA levels” value in experiment [8] was found to be 26%. In [9], the “transcript levels of the nuclear β-actin gene” value is given as “unaffected”. Further, the “decrease in ND2 and Cyt b transcript levels” value in experiment [11] was found to be 55%. Moreover, the “reduction of 16S rRNA levels” value in [11] is listed as 14%.

Consider `NCCCNCCCCN(CCCN)/[N+]([O-])=N/O` [spermine NONOate], for which, in the experiment on mitochondrial DNA [3] (sustained nitric oxide generation 0.5 mM/ml/min, cell line not named in the clause (HUVEC context)), the “DNA damage (in words)” value is “did no t cause DNA damage”.

For catalase, the “effect of pretreatment on O2^- induced mitochondrial DNA damage” value in the experiment with mitochondrial DNA [3] (HUVEC, O2^- 2 mM/ml/minute) is “prevented”.

The record behind these values is US7267946B2, “Mitochondrial DNA damage as a predictor of coronary atherosclerotic heart disease” (Research Development Foundation, priority 1999, dated 2007).
